Results: patent US5811445A, “Method of preventing abnormal stimulation of AT1 and AT2 receptors” (Roussel Uclaf, priority 1994, dated 1998)
Where a name gives a salt, the structure may show the parent alone. Read-outs that look alike come from different tables or passages of the source.

Experiments:
[1] = molecular target: T1, AT2 receptor of angiotensin II (Oryctolagus cuniculus, UniProt G1T351); assay: Test on the AT2 receptor of angiotensin II (displacement of 125I angiotensin II, rabbit uterus membranes); assay type: binding
T1 construct: A fresh membrane preparation obtained from rabbit's uterus is used; from tissue; host or cells: uterus membranes of estradiol-treated rabbits
T1 sequence (G1T351 1-363): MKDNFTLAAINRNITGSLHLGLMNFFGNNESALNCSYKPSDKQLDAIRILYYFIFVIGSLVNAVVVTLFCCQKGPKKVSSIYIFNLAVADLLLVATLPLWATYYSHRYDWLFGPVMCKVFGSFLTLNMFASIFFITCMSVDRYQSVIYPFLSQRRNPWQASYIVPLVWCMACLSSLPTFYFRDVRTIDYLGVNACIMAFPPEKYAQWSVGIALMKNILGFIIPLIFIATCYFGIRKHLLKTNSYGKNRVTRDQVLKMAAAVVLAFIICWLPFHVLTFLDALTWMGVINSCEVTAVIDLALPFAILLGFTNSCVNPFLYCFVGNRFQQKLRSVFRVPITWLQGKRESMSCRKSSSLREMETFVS
Description: 2) Test on the AT2 receptor of angiotensin II
The tissue is ground up in a polytron in a 50 mM Tris buffer pH 7.4, and the grinding is followed by 3 centrifugations at 30,000 g for 15 minutes, with intermediate take up of the pellets in the Tris buffer pH 7.4.
The homogenate obtained is preincubated for 20 minutes at 25° C. in the presence of 10 mM dithiothreitol, then brought back to 0°-4° C.
(§1) The product is first tested at 3.10^-5 M three times. When the tested product displaces more than 50% of the radioactivity specifically bound to the receptor, it is tested again according to a range of 7 concentrations in order to determine the concentration which inhibits by 50% the radioactivity specifically bound to the receptor. In this way the 50% inhibitory concentration is determined.
(§2) After incubation at 25° C. for 150 minutes, placing in a water-bath at 0° C. for 5 minutes, filtration under vacuum, and rinsing with Tris buffer pH 7.4, the radioactivity is counted in the presence of a scintillating solid.

[2] = molecular target: T2, AT1 receptor of angiotensin II (Rattus norvegicus, UniProt P25095); assay: Test on the AT1 receptor of angiotensin II (displacement of 125I angiotensin II, rat liver membranes); assay type: binding
T2 construct: A fresh membrane preparation obtained from rat's liver is used; from tissue; host or cells: rat liver membranes
T2 sequence (P25095 1-359): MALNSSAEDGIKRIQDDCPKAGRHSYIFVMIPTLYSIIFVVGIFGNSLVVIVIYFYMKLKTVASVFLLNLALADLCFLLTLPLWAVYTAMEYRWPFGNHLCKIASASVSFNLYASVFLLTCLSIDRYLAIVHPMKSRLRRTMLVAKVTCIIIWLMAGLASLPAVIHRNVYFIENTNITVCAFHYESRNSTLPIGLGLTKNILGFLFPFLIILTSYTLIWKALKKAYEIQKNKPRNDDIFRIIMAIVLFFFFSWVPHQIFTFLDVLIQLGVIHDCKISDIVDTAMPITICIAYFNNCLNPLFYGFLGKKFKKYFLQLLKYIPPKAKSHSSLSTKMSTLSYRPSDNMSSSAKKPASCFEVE
Description: 1 - Test on the AT1 -receptor of angiotensin II
A fresh membrane preparation obtained from rat's liver is used. The tissue is ground up in a polytron in a 50 mM Tris buffer pH 7.4, the grinding is followed by 3 centrifugations at 30,000 g for 15 minutes with intermediate take up of the pellets in the Tris buffer pH 7.4.
as §1, with “(The” for “The”, “with 3×10^-5” for “at 3.10^-5”, “times).” for “times.”, “determined).” for “determined.”
as §2

[3] = rabbit uterus membrane (estradiol pre-treated), 125I angiotensin II, 25° C., 150 minutes, read-out: AT2 Receptor IC50
[4] = rat liver membrane, 125I angiotensin II, 25° C., 150 minutes, read-out: AT1 Receptor IC50
[5] = products P1 to P13, expressed in nM, read-out: On AT2 receptor IC50
[6] = products P1 to P13, expressed in nM, read-out: On AT1 receptor IC50

Structure (SMILES)	IC50 [1, 3] [nM]	IC50 [2, 4] [nM]	IC50 [1, 5] [nM]	IC50 [2, 6] [nM]
CCCCc1nc(SC)c(C(C)(O)C(=O)O)n1Cc1ccc(-c2ccccc2S(=O)(=O)NC(=O)NCCC)cc1 (stereo not drawn) [Example 9, 2-butyl alpha-hydroxy alpha-methyl 4-(methylthio) 1-[(2'-((((propylamino)carbonyl)amino)sulphonyl) (1,1'-biphenyl) 4-yl)methyl] 1H-imidazole 5-acetic acid]	8.5	3.4		
CCCCc1nc(SC)c(C(C)(O)C(=O)O)n1Cc1ccc(-c2ccccc2S(=O)(=O)NC(=O)NCc2ccccc2)cc1 (stereo not drawn) [Example 11]	1.6	24		
CCCCc1nc(SC)c(C(C)(O)C(=O)O)n1Cc1ccc(-c2ccccc2S(=O)(=O)NC(=O)NCC2CCCCC2)cc1 (stereo not drawn) [Example 13, 2-butyl 1-[(2'-(((((cyclohexylmethyl)amino)arbonyl)amino)sulphonyl) (1,1'-biphenyl) 4-yl)methyl] alpha-hydroxy alpha-methyl 4-(methylthio) 1H-imidazole 5-acetic acid]	1.9	6.3		
CCCc1nc(SC)c(C(O)C(=O)O)n1Cc1ccc(-c2ccccc2S(=O)(=O)NC(=O)NCc2ccccc2)cc1 (stereo not drawn) [Example 21]	6.5	2.5		
CCCc1nc(SC)c(C(O)(C(=O)O)c2ccccc2)n1Cc1ccc(-c2ccccc2S(=O)(=O)NC(=O)NCc2ccccc2)cc1 (stereo not drawn) [Example 34, alpha-hydroxy 4-(methylthio) alpha-phenyl 1-((2'-(((((phenylmethyl)amino)carbonyl)amino)sulphonyl) (1,1'-biphenyl) 4-yl)methyl) 2-propyl 1H-imidazole 5-acetic acid]	2.1	0.7		
CCc1nc(SC)c(C(=O)O)n1Cc1ccc(-c2ccccc2S(=O)(=O)NC(=O)NCc2ccccc2)cc1 [Example 44, 2-ethyl 4-(methylthio) 1-((2'-(((((phenylmethyl)amino)carbonyl)amino)sulphonyl) (1,1'-biphenyl) 4-yl)methyl) 1H-imidazole 5-carboxylic acid]		0.06		
CCCc1nc(SC(F)F)c(C(=O)O)n1Cc1ccc(-c2ccccc2S(=O)(=O)NC(=O)CCC2CCCC2)cc1 [Example 54]	2.1			
CCCc1nc(SC(F)F)c(C(=O)O)n1Cc1ccc(-c2ccccc2S(=O)(=O)NC(=O)NCCC2=CCCCC2)cc1 [Example 56, 1-((2'-(((((2-cyclohexen-1-yl-ethyl)amino)carbonyl)amino)sulphonyl) (1,1'-biphenyl) 4-yl)methyl) 4-((difluoromethyl)thio) 2-propyl 1H-imidazole 5-carboxylic acid]	5.8			
CCCCc1nc(Cl)c(C(=O)O)n1Cc1ccc(-c2ccccc2S(=O)(=O)NC(=O)NCc2ccccc2)cc1 [Example 59]		0.08		
CCCc1nc(SC)c(C(=O)O)n1Cc1ccc(-c2ccccc2S(=O)(=O)NC(=O)Nc2ccc(C)cc2)cc1 [Example 63, 1-((2'-(((((4-methylphenyl)amino)carbonyl)amino)sulphonyl) (1,1'-biphenyl) 4-yl)methyl) 4-(methylthio) 2-propyl 1H-imidazole 5-carboxylic acid]	3.5			
CCc1nc(SC)c(C(=O)O)n1Cc1ccc(-c2ccccc2S(=O)(=O)NC(=O)NCC2CCCCC2)cc1 [Example 69, potassium 1-((2'-(((((cyclohexylmethyl)amino)carbonyl)amino)sulphonyl) (1,1'-biphenyl 4-yl)methyl) 2-ethyl 4-(methylthio) 1H-imidazole 5-carboxylate (potassium salt)]	1.3			
CCCCc1nc(SC)c(C(=O)O)n1Cc1ccc(-c2ccccc2S(=O)(=O)NC(=O)NCC(C)c2ccccc2)cc1 (stereo not drawn) [Example P3, 2-butyl 4-(methylthio) 1-[(2'-(((((1-beta-phenylpropyl)amino)carbonyl)amino)sulphonyl) (1,1'-biphenyl) 4-yl)methyl] 1H-imidazole 5-carboxylic acid]			11	1.1

Second part, the molecule after the results:

IC50 [1, 3] [nM]	IC50 [2, 4] [nM]	IC50 [1, 5] [nM]	IC50 [2, 6] [nM]	Structure (SMILES)
		14	0.1	CCCCc1nc(SC)c(C(=O)O)n1Cc1ccc(-c2ccccc2S(=O)(=O)NC(=O)NCc2ccccc2)cc1 [Example P2, 2-butyl 4-(methylthio) 1-[(2'-(((((phenylmethyl)amino)carbonyl)amino)sulphonyl) (1,1'-biphenyl) 4-yl)methyl] 1H-imidazole 5-carboxylic acid]
		47	0.5	CCCCc1nc(SC)c(C(=O)O)n1Cc1ccc(-c2ccccc2S(=O)(=O)NC(=O)NCCCCc2ccccc2)cc1 [Example P4, 2-butyl 4-(methylthio) 1-[(^2 '-(((((1-(4-phenylbutyl))amino)carbonyl)amino)sulphonyl) (1,1'-biphenyl) 4-yl)methyl] 1H-imidazole 5-carboxylic acid]
		25	0.3	CCCCc1nc(SC)c(C(=O)O)n1Cc1ccc(-c2ccccc2S(=O)(=O)NC(=O)NCc2ccc(OC)cc2)cc1 [Example P5, 2-butyl 1-[(2'-((((((4-methoxy)phenylmethyl)amino)carbonyl)amino)sulphonyl) (1,1'-biphenyl) 4-yl)methyl] 4-methylthio 1H-imidazole 5-carboxylic acid]
		10	0.27	CCCCc1nc(SC)c(C(=O)O)n1Cc1ccc(-c2ccccc2S(=O)(=O)NC(=O)NCc2ccc(F)cc2)cc1 [Example P6, 2-butyl 1-[(2'-((((((4-fluoro)phenylmethyl)amino)carbonyl)amino)sulphonyl) (1,1,1-biphenyl) 4-yl)methyl] 4-methylthio 1H-imidazole 5-carboxylic acid]
		49	0.4	CCCCc1nc(SC)c(C(=O)O)n1Cc1ccc(-c2ccccc2S(=O)(=O)NC(=O)NC(Cc2ccccc2)C(=O)O)cc1 (stereo not drawn) [Example P7, 2-butyl 1-[(2'-(((((1-(1-carboxy 2-phenyl)ethyl)amino)carbonyl)amino)sulphonyl) (1,1'-biphenyl) 4-yl)methyl] 4-methylthio 1H-imidazole 5-carboxylic acid]
		17	0.14	CCCCc1nc(SC)c(C(=O)O)n1Cc1ccc(-c2ccccc2S(=O)(=O)NC(=O)OCc2cccs2)cc1 [Example P8, 2-butyl 4-(methylthio) 1-[(2'-((((2-thienyl)methoxycarbonyl)amino)sulphonyl) (1,1'-biphenyl) 4-yl)methyl] 1H-imidazole 5-carboxylic acid]
		53	0.19	CCCCc1nc(SC)c(C(=O)O)n1Cc1ccc(-c2ccccc2S(=O)(=O)NC(=O)OCc2ccsc2)cc1 [Example P9, 2-butyl 4-(methylthio) 1-[(2'-((((3-thienyl)methoxycarbonyl)amino)sulphonyl) (1,1'-biphenyl) 4-yl)methyl] 1H-imidazole 5-carboxylic acid]
		31	0.7	CCCCc1nc(SC)c(C(=O)O)n1Cc1ccc(-c2ccccc2S(=O)(=O)NC(=O)OCC2CC=CCC2)cc1 (stereo not drawn) [Example P10, 2-butyl 1-[(2'-((((cyclohexen 4-yl)methoxycarbonyl)amino)sulphonyl) (1,1'-biphenyl) 4-yl)methyl] 4-methylthio 1H-imidazole 5-carboxylic acid]
		24	0.14	CCCCc1nc(SC)c(C(=O)O)n1Cc1ccc(-c2ccccc2S(=O)(=O)NC(=O)OCC2CCCCC2)cc1 [Example P11, 2-butyl 1-[(2'-((((cyclohexyl)methoxycarbonyl)amino)sulphonyl) (1,1'-biphenyl) 4-yl)methyl] 4-methylthio 1H-imidazole 5-carboxylic acid]
